Measured values as given in article PMC12040169 (PLOS Biology, 2025).

assay: in vitro; settings: human, hela cells, % viability

Point of comparison: `CCCC(NC(=O)Nc1ccnn1CC(C)C)c1nccn1C` (stereo not drawn) [CBK307444], viability at 28.5 h, 10 µM 92.7%. Against it:
- CN(C)CC(=O)Nc1cc(C(F)(F)F)ccc1Cl [CBK307420] — lower, 87.2%
- COc1nc2ccn(CCN3C(=O)CCC3=O)c(=O)c2cc1C#N [CBK307422] — higher, 94.7%
- Nc1cc(=O)[nH]c(SCC(=O)N2CCc3ccccc32)n1 [CBK307424] — higher, 94.4%
- CCCN1CCCC(NS(=O)(=O)c2cc(-n3cccn3)ccc2OC)C1 (stereo not drawn) [CBK307426] — lower, 91.8%
- COCCn1cnnc1C(C)NC(=O)N(C)Cc1nc2ccccc2s1 (stereo not drawn) [CBK307427] — lower, 88.2%
- Cc1nc(NCCN2CCCC(CO)C2)nc2c1CCCC2 (stereo not drawn) [CBK307430] — lower, 82%
- CN1CCC(O)(Cn2cnc3cc(-c4ccc(F)cc4)sc3c2=O)CC1 [CBK307434] — higher, 101%
- COCCN(Cc1cnn(C)c1)C(=O)Cc1coc2cc(C)c(Cl)cc12 [CBK307435] — higher, 108%
- O=C(O)[C@H]1CCCN1Cc1cc(Cl)ccc1OCCCn1ccnc1 [CBK307436] — higher, 109%
- CC(O)c1cc2n(n1)CCN(C(=O)c1csc(Cc3ccccc3)n1)C2 (stereo not drawn) [CBK307437] — higher, 98.1%
- CCNC(=O)C1CCN(Cc2c[nH]nc2-c2ccc(F)cc2)C1 (stereo not drawn) [CBK307438] — lower, 90%
- CCCN(Cc1nccn1C)C(=O)Cn1nc(C)c2ccccc2c1=O [CBK307441] — higher, 95.4%
- Cc1nc(N)nc(NCCC2CCCN(C)C2)c1Cl (stereo not drawn) [CBK307445] — lower, 88.6%
- Cn1c(N2CC[C@H](O)C2)nc2cc(C(=O)NCCC3CCCC3)ccc21 [CBK307447] — lower, 87.9%
- CC(C)c1nccn1CCCNC(=O)N1CCCC(c2ccncn2)C1 (stereo not drawn) [CBK307448] — lower, 88.7%
- CSc1ncc(CNC(=O)CC2CCc3ccccc32)n1C (stereo not drawn) [CBK307450] — lower, 85.9%
- CCc1ccc(NC(=O)N2CCCCC2CCn2ccnc2)cc1 (stereo not drawn) [CBK307453] — higher, 110%
- COc1ccc(C(=O)N2CCN(c3nc4c(s3)c(C)nn4C)CC2)cc1 [CBK307457] — higher, 96%
- CCN1CC2(CCC1=O)CCN(Cc1nncn1C(C)C)CC2 [CBK307460] — higher, 107%
- NCCn1cc(C(=O)N2Cc3cnn(Cc4ccc(F)cc4)c3C2)nn1 [CBK307461] — higher, 107%
- CCNC(=O)C1CCN(C(=O)c2coc(COc3cccc(F)c3)n2)C1 (stereo not drawn) [CBK307466] — lower, 86.3%
- Cc1cc(C(F)(F)F)nc(CCNC(=O)N(Cc2ccsc2)C2CC2)n1 [CBK307468] — higher, 107%
- Cc1nc(C(=O)NC2CC(=O)N(CCc3ccc(F)cc3)C2)cs1 (stereo not drawn) [CBK307473] — higher, 100%
- Cc1nc(C(=O)N2CCn3nc(C(O)c4ccccc4)cc3C2)c(C)s1 (stereo not drawn) [CBK307474] — lower, 92.5%
- CN1CCN(C)C(CNC(=O)c2ccc(-c3ccccc3CO)cc2)C1 (stereo not drawn) [CBK307475] — lower, 84.2%
- COc1cccc(CN2CCCC(NC(=O)c3cnn(C(C)C)c3)C2)c1 (stereo not drawn) [CBK307477] — lower, 91.3%
- CN(Cc1nccs1)C(=O)c1cccc(OCC(=O)N2CCCCC2)c1 [CBK307478] — higher, 108%
- Cn1c(N2CC[C@H](O)C2)nc2cc(C(=O)NCCn3cccc3)ccc21 [CBK307480] — lower, 83.6%
- CSc1nnc(CC2CCN(C(=O)c3cc(C)on3)CC2)n1C [CBK307481] — higher, 108%
- Cc1cc(=O)n(CC(=O)N2CCC3(CCCN(C(C)C)C3=O)C2)nc1C (stereo not drawn) [CBK307482] — lower, 90%
- CCC(Cn1ccnc1)NS(=O)(=O)c1cc(-n2cccn2)ccc1OC (stereo not drawn) [CBK307483] — lower, 87.8%
- CCCCn1nccc1NC(=O)NC(C)c1n[nH]c(C)n1 (stereo not drawn) [CBK307486] — higher, 99.4%
- CCc1c(-c2cccc(C(=O)N3CCS(=O)(=O)CC3)c2)cnn1C [CBK307487] — lower, 75.3%
- c1cnn(CC2CCCN2c2ncnc3sc4c(c23)CCNC4)c1 (stereo not drawn) [CBK307490] — lower, 85.9%
- OC1(CN2CCCC2)CCN(Cc2sccc2Cl)CC1 [CBK307491] — higher, 105%
